In patent US11766434B2, “Pyrimidinone derivatives as CDC7 inhibitors” (Cancer Research Technology Limited, priority 2016, dated 2023):

Experiments:
[1] = molecular target: T1, Cdc7 (Homo sapiens, UniProt O00311); test: Cdc7 cell pharmacodynamics assay Method 3: pS53MCM2 levels in SW48 cells; assay type: cell-based; parameters: endogenous in cells; host or cells: SW48; conditions: 6 hours treatment, read-out: Biomarker Method 3 (pEC50) (converted)
Description: This protocol describes a method to investigate the inhibition of Cdc7 activity by measuring pS53MCM2 levels in cells, after treatment with compounds.
• SW48 cells • RPMI 1640 (Sigma, R5886) • 10% FCS (Sera Laboratories International Ltd, EU000F Batch: 108005) • 100× L-Glutamine (Invitrogen, 25030-024) • D-Glucose Solution (10%) (Sigma, G8644) • HEPES Buffer Solution (Sigma, 83264) • Sodium Pyruvate (Sigma, S8636) • PBS (Fisger, BP399-4) • Trypsin/EDTA (Invitrogen 25300-054) • 2% BSA in PBS • Cell Extraction Buffer (Invitrogen FNN0011) • Protease inhibitor cocktail (Sigma P-2714) • PMSF 0.3M stock in DMSO (Sigma P7626) • Antibody—rabbit pMCM2 Ser53 (Bethyl #A300-756A) • Antibody—goat MCM2 (Bethyl #A300-122A) • Antibody—goat Anti Rabbit IgG HRP (Perbio Science UK Ltd 31462) • SuperSignal ELISA Pico Chemiluminescent Substrate (Perbio Science UK Ltd 37070) Method • Plate 30,000 SW48 cells per well in standard TC treated 96 well plate in 100 μL complete RPMI 1640 medium. • Allow cells to settle overnight in incubator set at 37° C. and 5% CO2. • Cell treatment: prepare a 384 well plate containing 80 μl PBS/well. The PBS should be at room temperature—to be referred to as intermediate plate. Transfer 2 μL of compound from mother plate to intermediate (daughter plate) 1:40 dilution, then 5 μL intermediate to cell (daughter) plate. • Once all cells are treated place the cells back to the incubator and incubate for 6 hours. • Dilute the capture antibody (total MCM2 #A300-122A) 1 in 250 in the required volume of PBS (5 mL per assay plate, plus 5 mL for dead volume) and add 50 μL to each well of a Hybond plate. Seal the plate and incubate at room temperature for a minimum of 2 hours. • Defrost aliquot of Invitrogen Cell Extraction Buffer (FNN0011) on ice and supplement with appropriate volume of both Sigma protease inhibitor cocktail (P-2714) and PMSF (final cone 1 mM from a 1 M stock in DMSO). • After the 6 hour cell treatment time, tap out the media from the assay plates and place them in the −80° C. freezer for at least 5 minutes. • Remove plates from freezer and add 20 μL of ice cold complete lysis buffer, with the multidrop. Incubate cells for 30 minutes at 4° C. • Add 80 μL per well 2% BSA. • Flick out the remaining liquid from the capture plate and transfer 80 μL from the lysis plate to the same wells in the capture/ELISA plate, using the Biomek. Cover with plate seal and incubate plates overnight at 4° C. • Wash plates with PBS, remove any residual remaining liquid and add 50 μL per well of pMCM2 Ser53 antibody (#A300-756A) diluted 1 in 100 in 2% BSA. Cover plate and incubate at room temperature for 2 hours with gentle shaking. • Wash plates with PBS, remove any residual remaining liquid and Incubate with 50 μL goat anti rabbit antibody (1 in 800 dilution in 2% BSA), for 1 hour at room temperature. • Wash plates with PBS, remove any residual remaining liquid and add 50 μL mixed SuperSignal Pico substrate. • Incubate each plate for 5 minutes at room temperature shielding the plates from direct light (with a cover plate). Read plates with the luminescent detection. Results

[2] = molecular target: T1, Cdc7; test: Cdc7 cell pharmacodynamics assay Method 1: pS53MCM2 levels in HCT116 cells; assay type: cell-based; parameters: endogenous in cells; conditions: 6 hours treatment, read-out: Biomarker Method 1 (pEC50) (converted)
Description: This protocol describes a method to investigate the inhibition of Cdc7 activity of compounds by measuring pS53MCM2 levels in cells after treatment.
• HCT116 cells (wild type P53 positive) • McCoys 5A media (PAA Laboratories Ltd, E15-022) • 10% FCS (Sera Laboratories International Ltd, EU000F Batch: 108005) • 100× L-Glutamine (Invitrogen, 25030-024) • D-PBS without CaCl2 and MgCl2 (Invitrogen, ref. 14190-094) • Trypsin/EDTA (Invitrogen 25300-054) • 2% BSA in PBS • Cell Extraction Buffer (Invitrogen FNN0011) • Protease inhibitor cocktail (Sigma P-2714) • PMSF 0.3M stock in DMSO (Sigma P7626) • Antibody—rabbit pMCM2 Ser53 (Bethyl #A300-756A) • Antibody—goat MCM2 (Bethyl #A300-122A) • Antibody—goat Anti Rabbit IgG HRP (Perbio Science UK Ltd 31462) • 1×PBS • FACE Wash buffer (0.02% Triton X100 in 1×PBS) • SuperSignal ELISA Pico Chemiluminescent Substrate (Perbio Science UK Ltd 37070) Method • 72 hours prior to the start of the experiment plate 1×10^6 HCT116 cells in a 150 cm^2 flask in complete McCoys 5A media (+10% FCS+1× L-glutamine). • Plate 20,000 HCT116 cells per well in standard TC treated 96 well plate in 100 μL complete McCoys 5A media. • Allow cells to settle overnight in incubator set at 37° C. and 5% CO2. • Remove intermediate plate from fridge and place at 37° C. overnight to allow to equilibrate. • Cell treatment: cell assay plate 100 μL; daughter to cell transfer volume 3.33 μL; daughter volume 45 μL; mother plate to daughter volume 5 μL. • Once all cells are treated remove the cells to the incubator and incubate for 6 hours. • Dilute the capture antibody (total MCM2 #A300-122A) 1 in 250 in the required volume of PBS (5 mL per assay plate) and add 50 μL to each well of a Hybond plate excluding wells 12E to 12H. In these wells add 50 μL PBS. Seal the plate and incubate at room temperature fora minimum of 2 hours. • Defrost aliquot of Invitrogen Cell Extraction Buffer (FNN0011) on ice and supplement with appropriate volume of both Sigma protease inhibitor cocktail (P-2714) and PMSF (final cone 1 mM from a […] in DMSO). • After the 6 hour cell treatment time tap out the media from the assay plates and place them in the −70° C. freezer for at least 5 minutes. • Remove plates from freezer and add 20 μL of ice cold complete lysis buffer on ice. Incubate cells for 30 minutes at 4° C. • Add 80 μL per well 2% BSA. • Transfer 80 μL from the lysis plate to the same wells in the capture/ELISA plate. Cover with plate seal and incubate plates overnight at 4° C. • Wash plates with PBS, remove any residual remaining liquid and add 50 μL per well of pMCM2 Ser53 antibody (#A300-756A) diluted 1 in 100 in 2% BSA. Cover plate and incubate at room temperature for 2 hours with gentle shaking. • Wash plates with PBS, remove any residual remaining liquid and Incubate with 50 μL goat anti rabbit antibody (1 in 800 dilution in 2% BSA) for 1 hour at room temperature. • Wash plates with PBS, remove any residual remaining liquid and add 50 μL mixed SuperSignal Pico substrate. • Incubate each plate for 5 minutes at room temperature shielding the plates from direct light (with a cover plate). Read plates with the luminescent detection. Method 2

T1 sequence (O00311 whole entry): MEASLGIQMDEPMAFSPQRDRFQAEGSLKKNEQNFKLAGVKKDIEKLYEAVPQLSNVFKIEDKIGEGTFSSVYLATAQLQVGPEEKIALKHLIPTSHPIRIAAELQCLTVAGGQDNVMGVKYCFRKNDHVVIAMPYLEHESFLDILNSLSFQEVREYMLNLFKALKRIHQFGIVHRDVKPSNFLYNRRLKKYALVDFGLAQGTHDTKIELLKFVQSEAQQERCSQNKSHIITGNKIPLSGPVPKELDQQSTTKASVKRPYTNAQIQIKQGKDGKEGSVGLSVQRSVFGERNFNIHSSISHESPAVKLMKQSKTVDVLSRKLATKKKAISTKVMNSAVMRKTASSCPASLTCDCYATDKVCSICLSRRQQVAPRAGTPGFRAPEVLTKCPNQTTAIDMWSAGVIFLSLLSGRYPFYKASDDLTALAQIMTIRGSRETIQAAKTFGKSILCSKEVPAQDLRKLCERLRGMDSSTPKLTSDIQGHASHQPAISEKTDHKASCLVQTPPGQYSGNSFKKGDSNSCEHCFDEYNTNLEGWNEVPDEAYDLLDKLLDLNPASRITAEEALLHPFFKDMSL
T1 sequence (Q9UBU7 whole entry partner): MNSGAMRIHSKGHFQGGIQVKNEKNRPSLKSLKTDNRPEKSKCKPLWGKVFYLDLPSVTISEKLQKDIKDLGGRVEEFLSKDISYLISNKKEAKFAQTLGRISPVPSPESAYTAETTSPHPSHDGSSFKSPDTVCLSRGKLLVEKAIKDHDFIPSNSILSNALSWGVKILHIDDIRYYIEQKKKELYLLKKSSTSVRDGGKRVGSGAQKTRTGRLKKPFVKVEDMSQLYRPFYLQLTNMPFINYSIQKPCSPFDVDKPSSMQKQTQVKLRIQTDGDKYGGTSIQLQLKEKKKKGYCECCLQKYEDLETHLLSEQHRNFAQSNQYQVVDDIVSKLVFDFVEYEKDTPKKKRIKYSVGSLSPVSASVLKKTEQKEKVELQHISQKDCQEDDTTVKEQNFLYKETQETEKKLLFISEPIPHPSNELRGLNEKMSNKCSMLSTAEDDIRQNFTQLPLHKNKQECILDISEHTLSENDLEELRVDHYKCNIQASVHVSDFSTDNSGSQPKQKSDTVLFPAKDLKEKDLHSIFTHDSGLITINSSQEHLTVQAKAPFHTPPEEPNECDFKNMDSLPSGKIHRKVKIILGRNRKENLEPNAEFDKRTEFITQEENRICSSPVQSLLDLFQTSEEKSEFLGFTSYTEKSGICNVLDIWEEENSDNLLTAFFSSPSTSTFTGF

Row | EC50 [1] [µM] | EC50 [2] [µM] | SMILES
1 | 1.48 | 0.0457 | O=c1[nH]c(-c2scnc2Cl)nc(C2CCOCC2)c1Cl [Compound 4, 5-chloro-2-(4-chlorothiazol-5-yl)-4-tetrahydropyran-4-yl-1H-pyrimidin-6-one]
2 | 2.09 | 0.107 | Cc1ncsc1-c1nc(C2CCOCC2)c(Cl)c(=O)[nH]1 [Compound 6, 5-chloro-2-(4-methylthiazol-5-yl)-4-tetrahydropyran-4-yl-1H-pyrimidin-6-one]
3 | 2.45 | 0.158 | O=c1[nH]c(-c2scnc2C(F)(F)F)nc(C2CCOCC2)c1Cl [Compound 14, 5-chloro-4-tetrahydropyran-4-yl-2-[4-(trifluoromethyl)thiazol-5-yl]-1H-pyrimidin-6-one]

The next lines start with the compound.

Row | SMILES | EC50 [1] [µM] | EC50 [2] [µM]
4 | Cc1ncsc1-c1nc(N2CCN[C@@H](C(F)(F)F)C2)c(Cl)c(=O)[nH]1 [Compound 28, 5-chloro-2-(4-methylthiazol-5-yl)-4-[(3R)-3-(trifluoromethyl)piperazin-1-yl]-1H-pyrimidin-6-one] | 1.1 | 0.0457
5 | C[C@@H]1COCCN1c1nc(-c2cn[nH]c2C(F)(F)F)[nH]c(=O)c1Cl [Compound 41, 5-chloro-4-[(3R)-3-methylmorpholin-4-yl]-2-[5-(trifluoromethyl)-1H-pyrazol-4-yl]-1H-pyrimidin-6-one] | 0.316 | 
6 | C[C@@H]1CNCCN1c1nc(-c2cn[nH]c2C(F)(F)F)[nH]c(=O)c1Cl [Compound 44, 5-chloro-4-[(2R)-2-methylpiperazin-1-yl]-2-[5-(trifluoromethyl)-1H-pyrazol-4-yl]-1H-pyrimidin-6-one] | 0.724 | 
7 | O=c1[nH]c(-c2cn[nH]c2C(F)(F)F)nc(C2CCOCC2)c1Cl [Compound 17, 5-chloro-4-tetrahydropyran-4-yl-2-[5-(trifluoromethyl)-1H-pyrazol-4-yl]-1H-pyrimidin-6-one] |  | 0.112
8 | C[C@@H]1CNCCN1c1nc(-c2cn[nH]c2Cl)[nH]c(=O)c1Cl [Compound 43, 5-chloro-2-(5-chloro-1H-pyrazol-4-yl)-4-[(2R)-2-methylpiperazin-1-yl]-1H-pyrimidin-6-one] | 0.347 | 
